Data on one compound can be found in patent EP0140492B1 (WARNER-LAMBERT COMPANY, priority 1983, dated 1985).

For data set [1] the following is noted: water and alcohol; cited from earlier work.
The conditions of data set [2]: cited from earlier work.
The nature of data set [3]: Plasma levels of isoxicam and bioavailability parameters after a single oral dose to beagle dogs. It counts as in vivo. Conditions: beagle, dog, in vivo, po; for Tmax: Tmax (hours). The protocol: The range for the individual animals was 51.4 to 63.0 µg/ml with three animals having a peak time of two hours and the final animal at eight hours. These plasma levels were considerably higher when compared to micronized isoxicam. […] Peak plasma concentrations for individual animals ranged from […] between three and six hours postdose.
Areas under the plasma concentrations versus time curve (AUC^0-∞) were calculated using the trapezoidal rule and extrapolated to infinity with the appropriate elimination rate constants.

Take `Cc1cc(NC(=O)C2=C(O)c3ccccc3S(=O)(=O)N2C)no1` [micronized isoxicam, 4 - hydroxy - 2 - methyl - N - (5 - methyl - 3 - isoxazolyl) - 2H - 1,2 - benzothiazine - 3 - carboxamide - 1,1 - dioxide, reference compound]: the solubility entry in data set [1] was “practically insoluble in water and alcohol”. Besides, the pKa entry in data set [2] was “about 3.65”. Also, the AUC in data set [3] (100 mg, AUC^0-∞) was found to be 808 µg·h/mL; in data set [3] (100 mg, mean AUC^0-∞), 808 ± 230 µg·h/mL. Moreover, the Cmax in data set [3] (100 mg, Cmax (µg/ml)) stood at 15400 ng/mL; in data set [3] (100 mg, Mean Cmax), 15400 ± 4200 ng/mL. Also, the half-life in data set [3] (100 mg, Half-life (hours)) is 35.5 h; in data set [3] (100 mg, Mean half-lives (elimination, linear regression of semilogarithmic data)), 35.5 ± 7.1 h; in data set [3] (Half-life (hours)), 32.6 h. In addition, the figures for the Tmax in data set [3] (100 mg) and in data set [3] were 4.2 h and 6 h, respectively.
